Measured values as given in patent US11419921B2, “Methods of treating neurological disorders” (EnClear Therapies, Inc., priority 2018, dated 2022).

Key:
(GR)10 [1] = experiment: Cleavage of (GR)10 by enzymes in solution (PBS with CaCl2 and MgCl2), LC/MS of GR repeats; assay type: biochemical; conditions: (GR)10 50 μM
Experimental: • (GR)10 dipeptide (also (GR)8, (GR)6, (GR)4, (GR)2) were synthetized by solid-phase synthesis by CanPeptide; All peptides are uncapped and supplied lyophilized with TFA as counter ions. Purity was always above 95%. • Buffer: PBS buffer containing CaCl2 and MgCl2. • Stock solution of enzyme (e.g., 10 mg/mL) (prepared per manufacturer instructions) in PBS. Activators added as necessary. • Working solution of protein of the desired concentration (e.g., 100 μg/mL) prepared immediately before use by diluting the stock solution (e.g., 5 μL of 10 mg/mL stock solution) in PBS buffer (e.g., in 495 μL of PBS). Exemplary Procedure Using 50 μM Concentrations of (GR)10
25 μL of a 100 μM solution of (GR)10 was added to each well of a 96-well plate. 25 μL of a solution of enzyme (two times the desired final enzyme concentration) was added, and the plates were incubated at room temperature. At the specified time points (5 minutes, 10 minutes, 30 minutes, 60 minutes, and 180 minutes) 2.5 μL of a 10% TFA solution were added to stop the reaction. For the time 0 min well, the TFA was added to the well before addition of the enzyme. After last time point, all samples were further diluted with 150 μL of dilution solution. The quenched reaction mixtures were analyzed by LC/MS to determine the concentration of GR repeats of different lengths.
The chromatography and mass spectrometry conditions utilized are shown in Table 2 and Table 3, respectively.

(GR)10 [2] = experiment: (GR)10 digestion by immobilized proteases stored at 4° C. for over 2 months; assay type: biochemical; conditions: 200 μM (GR)10 in PBS, 5 or 60 minute treatment, FIGS. 8C, 8D
Experimental: (GR)10 was prepared in water to a stock concentration of 10 mM then diluted to a concentration of 200 μM in PBS with Ca^2+ and Mg^2+. (GR)10 samples were then treated with agarose resins having immobilized trypsin or elastase, PBS alone, or agarose resin alone, for 5 minutes or 60 minutes at room temperature. Resins were prepared by a routine method as commonly used by persons of ordinary skill in the art (e.g., the binding reaction described in the POROS™ 20 AL, EP and OH Perfusion Chromatography Bulk Media for Activated Affinity Chromatography Product Information Sheet, ThermoFisher Scientific, Waltham, Mass., Pub. No. 8-0031-40-0993, Rev. C., (incorporated herein by reference in its entirety)) and stored at 4° C. for over 2 months.
50 μl of treated samples were prepared for LC/MS analysis by adding 2.5 μl of 10% trifluoroacetic acid to each sample and 150 μl of dilution solution (0.5% formic acid in ACN/MeOH [50:50]).

iCell® motor neurons = experiment: Toxicity of (GR)10, untreated or protease-treated, on iCell motor neurons; assay type: cell-based; conditions: (GR)10 concentrations of 25, 50 and 100 μM
Experimental: 200 μM of (GR)10 were diluted in human cerebrospinal fluid (CSF) and 400 μL were applied to each immobilized proteases. The reaction was incubated 5 minutes at room temperature with end-to-end mixing. Columns were spun down 1 minute at 1,000 Xg to recover digested GR dipeptides. Columns were washed with 12 resin volumes of PBS. The procedure was repeated with 60 minutes digestion time. 100 μL of each samples were transferred to a clean tube, flash-frozen and subsequently used for LC/MS quantification of GR repeats of different lengths. The remaining 300 μL of each samples were flash-frozen and used to assess neuron toxicity.
300 μL of CSF were applied to each immobilized proteases and incubated 60 minutes at room temperature with end-to-end mixing. Columns were spun down 1 minute at 1,000 Xg to recover treated CSF. Samples were flash-frozen and subsequently used to test neuron toxicity.
This example describes the reduced toxicity of (GR)10 on in vitro neuronal cells by digestion of (GR)10 with proteases.

Substance: Thrombin
- (GR)1 concentration ((GR)10 [1]; enzyme 2.5 μg/mL, 0 min): BLQ
- (GR)2 concentration ((GR)10 [1]; enzyme 2.5 μg/mL, 0 min): BLQ
- (GR)4 concentration ((GR)10 [1]; enzyme 2.5 μg/mL, 0 min): 0.1 µM
- (GR)6 concentration ((GR)10 [1]; enzyme 2.5 μg/mL, 0 min): 0.1 µM
- (GR)8 concentration ((GR)10 [1]; enzyme 2.5 μg/mL, 0 min): 1.1 µM
- (GR)10 concentration ((GR)10 [1]; enzyme 2.5 μg/mL, 0 min): 37.7 µM
- (GR)1 concentration ((GR)10 [1]; enzyme 2.5 μg/mL, 5 min): BLQ
- (GR)2 concentration ((GR)10 [1]; enzyme 2.5 μg/mL, 5 min): BLQ
- (GR)4 concentration ((GR)10 [1]; enzyme 2.5 μg/mL, 5 min): 0.1 µM
- (GR)6 concentration ((GR)10 [1]; enzyme 2.5 μg/mL, 5 min): 0.1 µM
- (GR)8 concentration ((GR)10 [1]; enzyme 2.5 μg/mL, 5 min): 1.5 µM
- (GR)10 concentration ((GR)10 [1]; enzyme 2.5 μg/mL, 5 min): 42.9 µM
- (GR)1 concentration ((GR)10 [1]; enzyme 2.5 μg/mL, 10 min): BLQ
- (GR)2 concentration ((GR)10 [1]; enzyme 2.5 μg/mL, 10 min): BLQ
- (GR)4 concentration ((GR)10 [1]; enzyme 2.5 μg/mL, 10 min): 0.1 µM
- (GR)6 concentration ((GR)10 [1]; enzyme 2.5 μg/mL, 10 min): BLQ
- (GR)8 concentration ((GR)10 [1]; enzyme 2.5 μg/mL, 10 min): 1.4 µM
- (GR)10 concentration ((GR)10 [1]; enzyme 2.5 μg/mL, 10 min): 46.7 µM
- (GR)1 concentration ((GR)10 [1]; enzyme 2.5 μg/mL, 30 min): BLQ
- (GR)2 concentration ((GR)10 [1]; enzyme 2.5 μg/mL, 30 min): 0.1 µM
- (GR)4 concentration ((GR)10 [1]; enzyme 2.5 μg/mL, 30 min): 0.2 µM
- (GR)6 concentration ((GR)10 [1]; enzyme 2.5 μg/mL, 30 min): 0.1 µM
- (GR)8 concentration ((GR)10 [1]; enzyme 2.5 μg/mL, 30 min): 1.3 µM
- (GR)10 concentration ((GR)10 [1]; enzyme 2.5 μg/mL, 30 min): 49.1 µM
- (GR)1 concentration ((GR)10 [1]; enzyme 2.5 μg/mL, 60 min): 0.1 µM
- (GR)2 concentration ((GR)10 [1]; enzyme 2.5 μg/mL, 60 min): 0.2 µM
- (GR)4 concentration ((GR)10 [1]; enzyme 2.5 μg/mL, 60 min): 0.3 µM
- (GR)6 concentration ((GR)10 [1]; enzyme 2.5 μg/mL, 60 min): 0.1 µM
- (GR)8 concentration ((GR)10 [1]; enzyme 2.5 μg/mL, 60 min): 1.1 µM
- (GR)10 concentration ((GR)10 [1]; enzyme 2.5 μg/mL, 60 min): 56.2 µM
- (GR)1 concentration ((GR)10 [1]; enzyme 2.5 μg/mL, 120 min): 0.2 µM
- (GR)2 concentration ((GR)10 [1]; enzyme 2.5 μg/mL, 120 min): 0.2 µM
- (GR)4 concentration ((GR)10 [1]; enzyme 2.5 μg/mL, 120 min): 0.4 µM
- (GR)6 concentration ((GR)10 [1]; enzyme 2.5 μg/mL, 120 min): 0.3 µM
- (GR)8 concentration ((GR)10 [1]; enzyme 2.5 μg/mL, 120 min): BLQ
- (GR)10 concentration ((GR)10 [1]; enzyme 2.5 μg/mL, 120 min): 45.3 µM
- (GR)1 concentration ((GR)10 [1]; enzyme 10 μg/mL, 0 min): BLQ
- (GR)2 concentration ((GR)10 [1]; enzyme 10 μg/mL, 0 min): BLQ
- (GR)4 concentration ((GR)10 [1]; enzyme 10 μg/mL, 0 min): 0.1 µM
- (GR)6 concentration ((GR)10 [1]; enzyme 10 μg/mL, 0 min): BLQ
- (GR)8 concentration ((GR)10 [1]; enzyme 10 μg/mL, 0 min): 1.3 µM
- (GR)10 concentration ((GR)10 [1]; enzyme 10 μg/mL, 0 min): 52.0 µM
- (GR)1 concentration ((GR)10 [1]; enzyme 10 μg/mL, 5 min): 0.1 µM
- (GR)2 concentration ((GR)10 [1]; enzyme 10 μg/mL, 5 min): 0.1 µM
- (GR)4 concentration ((GR)10 [1]; enzyme 10 μg/mL, 5 min): 0.2 µM
- (GR)6 concentration ((GR)10 [1]; enzyme 10 μg/mL, 5 min): BLQ
- (GR)8 concentration ((GR)10 [1]; enzyme 10 μg/mL, 5 min): BLQ
- (GR)10 concentration ((GR)10 [1]; enzyme 10 μg/mL, 5 min): 54.8 µM
- (GR)1 concentration ((GR)10 [1]; enzyme 10 μg/mL, 10 min): 0.1 µM
- (GR)2 concentration ((GR)10 [1]; enzyme 10 μg/mL, 10 min): 0.1 µM
- (GR)4 concentration ((GR)10 [1]; enzyme 10 μg/mL, 10 min): 0.2 µM
- (GR)6 concentration ((GR)10 [1]; enzyme 10 μg/mL, 10 min): 0.1 µM
- (GR)8 concentration ((GR)10 [1]; enzyme 10 μg/mL, 10 min): 1.0 µM
- (GR)10 concentration ((GR)10 [1]; enzyme 10 μg/mL, 10 min): 59.4 µM
- (GR)1 concentration ((GR)10 [1]; enzyme 10 μg/mL, 30 min): 0.3 µM
- (GR)2 concentration ((GR)10 [1]; enzyme 10 μg/mL, 30 min): 0.4 µM
- (GR)4 concentration ((GR)10 [1]; enzyme 10 μg/mL, 30 min): 0.4 µM
- (GR)6 concentration ((GR)10 [1]; enzyme 10 μg/mL, 30 min): 0.4 µM
- (GR)8 concentration ((GR)10 [1]; enzyme 10 μg/mL, 30 min): 1.3 µM
- (GR)10 concentration ((GR)10 [1]; enzyme 10 μg/mL, 30 min): 48.6 µM
- (GR)1 concentration ((GR)10 [1]; enzyme 10 μg/mL, 60 min): 0.5 µM
- (GR)2 concentration ((GR)10 [1]; enzyme 10 μg/mL, 60 min): 0.6 µM
- (GR)4 concentration ((GR)10 [1]; enzyme 10 μg/mL, 60 min): 0.8 µM
- (GR)6 concentration ((GR)10 [1]; enzyme 10 μg/mL, 60 min): 0.5 µM
- (GR)8 concentration ((GR)10 [1]; enzyme 10 μg/mL, 60 min): 2.4 µM
- (GR)10 concentration ((GR)10 [1]; enzyme 10 μg/mL, 60 min): 55.2 µM
- (GR)1 concentration ((GR)10 [1]; enzyme 10 μg/mL, 120 min): 1.1 µM
- (GR)2 concentration ((GR)10 [1]; enzyme 10 μg/mL, 120 min): 1.4 µM
- (GR)4 concentration ((GR)10 [1]; enzyme 10 μg/mL, 120 min): 1.6 µM
- (GR)6 concentration ((GR)10 [1]; enzyme 10 μg/mL, 120 min): 1.3 µM
- (GR)8 concentration ((GR)10 [1]; enzyme 10 μg/mL, 120 min): 3.0 µM
- (GR)10 concentration ((GR)10 [1]; enzyme 10 μg/mL, 120 min): 48.7 µM

Substance: agarose resin having immobilized elastase: elastase immobilized in-house on agarose resin
- (GR)10 proteolytic activity after storage at 4° C. for over 2 months ((GR)10 [2]): did not exhibit substantial (GR)10 proteolytic activity
- Effect of protease treatment of (GR)10 on (GR)10 toxicity (iCell® motor neurons): abrogation of (GR)10 toxicity
